Source: patent publication US9505735B2, “Compounds for treating infectious diseases” (Whitehead Institute for Biomedical Research, priority 2012, dated 2016)

Columns and labels:
Aspergillus terreus = test: Antifungal susceptibility testing (mold, MIC50/MIC80); format: cell-based
Method: Sensitivity to gepinacin was determined in 96-well, flat bottom microtiter plates using a modification of the NCCLS broth microdilution protocol CLS M27-A3 and RPMI as culture medium. Fungi were inoculated at ˜10^3 cells per ml and incubated for 48 hours at 37° C. after which plates were sealed, shaken and the optical density read at 600 nm (OD600) on a Tecan Safire 2 plate reader. All samples were run in duplicate or triplicate and assays were repeated at least once. Results are expressed as fraction of growth in the absence of compound and the mean and standard deviation are plotted. For the mold A. terreus, inoculum was 10^4 cells per ml and plates were incubated at 35° C. for 48 hours in the dark. Plates were then visually scored as specified by CLSI document M38-A2 to determine the MIC50 and MIC80.

[1] = test system: mammalian cells (293T, mouse embryo fibroblasts); test: Mammalian cell toxicity testing (Cell Titer-Glo); format: cell-based, human; conditions: 20 μM, 48 hours
Method: (B) Anti-fungal susceptibility testing for an evolutionarily diverse group of fungi treated with gepinacin. For A. terreus the MIC50 and MIC80 are plotted. (C) Anti-fungal susceptibility testing for wild type C. albicans and strains resistant to the three major classes of anti-fungals treated with gepinacin. (D) Mammalian cell toxicity testing for proliferating human cells in culture (293T) or quiescent cells (mouse embryo fibroblasts). Cells were treated with gepinacin (20 μM) for 48 hours after which relative viable cell number was measured by standard luciferase assay (Cell Titer-Glo®, Promega).

[2] = test system: amphotericin B-resistant or fluconazole-resistant C. albicans; test: Co-culture of mammalian cells and C. albicans: fungal proliferation; format: cell-based; conditions: 40 μM, 24 hours, serum-containing medium
Method: For co-culture experiments, confluent layers of NIH 3T3 cells were established in 6-well plates. The following day, the medium was replaced with RPMI1640+10% FBS containing the amphotericin-resistant strain CaAmphR at […] colony forming units per ml and 40 μM gepinacin or an equivalent amount of DMSO. Co-cultures were incubated for 24 hours at 37° C. in a micro-isolator box. Images were acquired on a Nikon Eclipse TS100 microscope at 40×.
Having determined the target of gepinacin in fungi, gepinacin's effect on the human ortholog of Gwt1, PIG-W, was examined. To determine if gepinacin remained active under mammalian cell culture conditions cultured fungi were cultured (either an amphotericin B-resistant (FIG. 3a) or fluconazole-resistant (data not shown) isolate of C. albicans) and mammalian cells together with 40 μM gepinacin. […] PIG-W (and GPI anchor biosynthesis) is not essential for mammalian cells in culture.

[3] = test system: RAW264.7 macrophages co-cultured with treated C. albicans; test: Macrophage stimulation and TNFα measurement (ELISA); format: cell-based, mouse; conditions: 2 hours co-culture
Method: Cultures of C. albicans Sc5314 cells were drug treated as described for β-glucan staining. After overnight incubation, cultures were washed extensively, counted, and added to cultures of the mouse macrophage cell line RAW264.7 at a macrophage:yeast ratio of 1:2.5 in the continued presence of drug. After 2 hours supernatants were harvested and TNFα concentration measured by ELISA using a kit according to manufacturer's instructions (DY410, R&D Systems).

Emp24-GFP = Emp24-GFP distribution (microscopy); format: cell-based, S. cerevisiae; conditions: 5 μM, overnight
Method: (A) Anti-fungal susceptibility testing of gepinacin using suppressor strains 20-1 and 20-2. (B) The sequence of EMP24 in S. cerevisiae is shown with the location of mutations found by whole genome sequencing in the suppressor strains 20-1 and 20-2 indicated. The sequence in FIG. 4B corresponds to SEQ ID NO: 1. (C) Micrographs showing the redistribution of Emp24-GFP after overnight incubation with 5 μM gepinacin. Green fluorescence and DIC images are merged in the lower panels. Scale bar; 5 μm.
To determine if gepinacin does indeed alter trafficking and change Emp24 distribution yeast in which GFP was fused in frame to the 3′ end of genomic EMP24 were examined.

Question: Which growth inhibition (Aspergillus terreus) does the source give for COc1ccc(NC(=O)COc2cccc(OCC(C)C)c2)cc1 [gepinacin] here?
Answer: The growth inhibition was “inhibited the growth”.

Question: And the “cytotoxicity for mammalian cells” value [1]?
Answer: Its value is “Lack of cytotoxicity”.

Question: What about the “fungal proliferation in co-culture” value [2] of the same molecule?
Answer: The value was “profound inhibition of proliferation”.

Question: And the “TNFα secretion by macrophages” value [3]?
Answer: The value was “more than doubled”.

Question: What about the Emp24-GFP localisation (Emp24-GFP) of the same molecule?
Answer: Its Emp24-GFP localisation is “dramatically re-localized into large, bright dotlike structures”.
